For 1 compound, IC50 results are on record in patent publication US7304079B2, “Substituted indolealkanoic acids” (The Institute for Pharmaceutical Discovery, LLC, priority 1998, dated 2007).

For orientation: IC50 means the concentration needed to halve the response being measured. Low values mean inhibition by little substance, high ones a need for much substance.

In the assay the target is T1, human aldehyde reductase (hALR1) (Homo sapiens, UniProt P14550).
T1 sequence (P14550 1-325): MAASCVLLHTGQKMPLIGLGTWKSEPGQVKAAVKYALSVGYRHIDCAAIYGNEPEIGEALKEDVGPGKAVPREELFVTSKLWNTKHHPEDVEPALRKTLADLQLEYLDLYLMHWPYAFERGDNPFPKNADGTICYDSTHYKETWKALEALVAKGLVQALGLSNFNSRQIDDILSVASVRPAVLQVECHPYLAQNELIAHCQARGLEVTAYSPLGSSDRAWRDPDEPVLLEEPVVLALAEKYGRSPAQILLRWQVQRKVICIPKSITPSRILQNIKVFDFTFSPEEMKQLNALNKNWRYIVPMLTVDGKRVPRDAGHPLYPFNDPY
Put plainly: human aldehyde reductase (hALR1) inhibition. It is filed as biochemical. How it is done: In a second assay, a number of the same compounds were tested for their ability to inhibit aldehyde reductase (hALR1), a structurally related enzyme.

Molecules are shown by their SMILES.

Turning to `O=C(O)Cn1cc(Cc2nc3c(F)c(F)cc(F)c3s2)c2ccc(N3CCOCC3)cc21` [Example 18, 6-morpholino-3-(4,5,7-trifluorobenzothiazol-2-yl)methyl-indole-N-acetic acid], the IC50 is more than 100 nM.
